This is an account of results in ChEMBL document CHEMBL5154839, “Discovery of a selective and covalent small-molecule inhibitor of BFL-1 protein that induces robust apoptosis in cancer cells” (Eur J Med Chem, 2022).

SMILES strings stand for the structures. pIC50, pKd, pKi: −log10 of the molar value. Activity calls are given as the source filed them. No cut-off for these calls is given here.

As a reminder, the pKd is the negative decadic logarithm of the Kd, by convention in mol/L. What is called pKi is the negative decadic logarithm of the Ki, by convention in mol/L. The term pIC50 denotes the IC50 on a negative log10 scale, so that one unit is a factor of ten. Lower therefore signals a high IC50.

In assay [1] the test system is Kasumi 1. The assay is described as follows: Upregulation of BFL-1 protein expression in human Kasumi 1 cells by Western blotting analysis. Format: functional, cell-based. (In general: Immunoblotting shows a protein as a band on a membrane.)
Assay [2] concerns the target Bcl-2-related protein A1 (Homo sapiens) (UniProt Q16548). Kind of assay: Binding affinity to His-tagged recombinant BFL-1 (1 to 151 residues) (unknown origin) expressed in Escherichia coli BL21 (DE3) assessed as association constant by surface plasmon resonance analysis. (In general: In SPR one partner is held on a chip, and binding of the other changes the refractive index at the surface.)

Assay [3] has as its target T1, Bcl-2-related protein A1 (Homo sapiens, UniProt Q16548).
T1 sequence (Q16548 whole entry): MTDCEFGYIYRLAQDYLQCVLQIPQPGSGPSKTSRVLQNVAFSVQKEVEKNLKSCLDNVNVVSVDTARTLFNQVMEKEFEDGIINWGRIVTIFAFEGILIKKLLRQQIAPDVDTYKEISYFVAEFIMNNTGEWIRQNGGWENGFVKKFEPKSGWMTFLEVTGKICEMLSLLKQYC
The assay is described as follows: Binding affinity to His-tagged recombinant BFL-1 (1 to 151 residues) (unknown origin) expressed in Escherichia coli BL21 (DE3) assessed as dissociation constant by surface plasmon resonance analysis.

Assay [4] has as its target Apoptosis regulator Bcl-2 (Homo sapiens, UniProt P10415). Kind of assay: Displacement of fluorescein tagged BIM peptide from N-terminal His tagged human BCL-2 (1 to 170 residues) expressed in Escherichia coli BL21 (DE3) assessed as inhibition constant incubated for 1.5 hrs by fluorescence polarization-based competitive binding assay. For orientation: Fluorescence polarisation rises when a labelled molecule tumbles more slowly, as on binding a larger partner.

Assay [5] has as its target Transcriptional enhancer factor TEF-4 (Homo sapiens, UniProt Q15562). Kind of assay: Displacement of FAM- labeled YAP1 peptide from TEAD2 (217 to 447 residues) (unknown origin) expressed in Escherichia coli BL21 (DE3) assessed as inhibition constant incubated for 1.5 hrs by fluorescence polarization-based competitive binding assay.
The target of assay [6] is Transcriptional enhancer factor TEF-3 (Homo sapiens, UniProt Q15561). Kind of assay: Displacement of FAM- labeled YAP1 peptide from TEAD4 (217 to 434 residues) (unknown origin) expressed in Escherichia coli BL21 (DE3) assessed as inhibition constant incubated for 1.5 hrs by fluorescence polarization-based competitive binding assay.
Transcriptional enhancer factor TEF-3, sequence (Q15561 whole entry, the tested form may be a part): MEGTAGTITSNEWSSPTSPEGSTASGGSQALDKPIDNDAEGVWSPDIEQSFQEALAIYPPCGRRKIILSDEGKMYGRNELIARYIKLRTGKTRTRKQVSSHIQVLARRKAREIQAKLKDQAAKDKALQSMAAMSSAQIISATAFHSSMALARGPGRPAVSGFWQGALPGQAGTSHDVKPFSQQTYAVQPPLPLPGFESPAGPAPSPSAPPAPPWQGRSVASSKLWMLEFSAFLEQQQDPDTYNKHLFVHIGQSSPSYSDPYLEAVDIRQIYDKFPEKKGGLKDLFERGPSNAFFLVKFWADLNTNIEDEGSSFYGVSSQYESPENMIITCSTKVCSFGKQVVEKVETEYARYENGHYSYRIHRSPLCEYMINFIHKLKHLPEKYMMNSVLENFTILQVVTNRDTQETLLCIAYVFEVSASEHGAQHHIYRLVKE
Assay [7] concerns the target E3 ubiquitin-protein ligase Mdm2 (Homo sapiens, UniProt Q00987). The assay is described as follows: Displacement of FAM- labeled PDI peptide from MDM2 (1 to 118 residues) (unknown origin) expressed in Escherichia coli BL21 (DE3) assessed as inhibition constant incubated for 1.5 hrs by fluorescence polarization-based competitive binding assay.
Assay [8] concerns the target Bromodomain-containing protein 3 (Homo sapiens, UniProt Q15059). The assay is described as follows: Binding affinity to recombinant human BRD3 BD2 (306-417 residues) assessed as inhibition constant by fluorescence polarization assay.
Assay [9] addresses beta-catenin-B-cell lymphoma 9 protein complex (Homo sapiens, UniProt P35222). The assay is described as follows: Inhibition of N-terminal biotinylated human BCL9 (350 to 375 residues)/C-terminal 6-His-tagged beta-catenin (1 to 781 residues) (unknown origin) expressed in Escherichia coli BL21 (DE3) protein-protein interaction assessed as inhibition constant incubated for 1 hr by Alphascreen assay.

In assay [10] the test system is Kasumi 1. Kind of assay: Induction of apoptosis in human Kasumi 1 cells overexpressing BFL-1 assessed as increase in cytochrome c level at 5 to 40 uM incubated for 3 hrs by immunoblotting analysis. Format: functional, cell-based. As to conditions: dose 5-40 µM.
For assay [11], the system named is U-937. The assay is described as follows: Induction of apoptosis in human U-937 cells assessed as increase in BFL-1 protein expression after 24 hrs by Western blot analysis. Format: functional, cell-based. As to conditions: DDE = dose-dependent effect.
Assay [12] has as its system U-937. The assay is described as follows: Induction of apoptosis in human U-937 cells assessed as decrease in MCL-1 protein expression after 24 hrs by Western blot analysis. Format: functional, cell-based. As to conditions: DDE = dose-dependent effect.
Assay [13] deals with U-937. The assay is described as follows: Induction of apoptosis in human U-937 cells assessed as early apoptotic cells at 60 uM measured after 4 hrs by Annexin PI staining based flow cytometry method (reference value: 1.95 %). In kind it is functional.
Assay [14] has as its system U-937. Kind of assay: Induction of apoptosis in human U-937 cells assessed as early apoptotic cells at 20 uM measured after 4 hrs by Annexin PI staining based flow cytometry method (reference value: 1.95 %). In kind it is functional.
Assay [15] concerns U-937. Kind of assay: Induction of apoptosis in human U-937 cells assessed as necrotic cells at 20 uM measured after 4 hrs by Annexin PI staining based flow cytometry method (reference value: 0.00 %). Format: functional.
Assay [16] concerns U-937. Kind of assay: Induction of apoptosis in human U-937 cells assessed as early apoptotic cells at 40 uM measured after 4 hrs by Annexin PI staining based flow cytometry method (reference value: 1.95 %). In kind it is functional.
The test system of assay [17] is U-937. Kind of assay: Induction of apoptosis in human U-937 cells assessed as necrotic cells at 40 uM measured after 4 hrs by Annexin PI staining based flow cytometry method (reference value: 0.00 %). In kind it is functional.
In assay [18] the test system is U-937. The assay is described as follows: Induction of apoptosis in human U-937 cells assessed as necrotic cells at 60 uM measured after 4 hrs by Annexin PI staining based flow cytometry method (reference value: 0.00 %). Format: functional.
Assay [19] has as its system MV4-11. Kind of assay: Growth inhibition of human MV4-11 cells incubated for 4 days by WST assay. Format: functional, cell-based. As to conditions: MV4-11, 96 h.
Assay [20] relates to U-937. The assay is described as follows: Induction of apoptosis in human U-937 cells assessed as assessed as increase in PARP cleavage measured after 24 hrs by Western blot analysis. Format: functional, cell-based. As to conditions: DDE = dose-dependent effect.

Transcriptional enhancer factor TEF-4, sequence (Q15562 whole entry, the tested form may be a part): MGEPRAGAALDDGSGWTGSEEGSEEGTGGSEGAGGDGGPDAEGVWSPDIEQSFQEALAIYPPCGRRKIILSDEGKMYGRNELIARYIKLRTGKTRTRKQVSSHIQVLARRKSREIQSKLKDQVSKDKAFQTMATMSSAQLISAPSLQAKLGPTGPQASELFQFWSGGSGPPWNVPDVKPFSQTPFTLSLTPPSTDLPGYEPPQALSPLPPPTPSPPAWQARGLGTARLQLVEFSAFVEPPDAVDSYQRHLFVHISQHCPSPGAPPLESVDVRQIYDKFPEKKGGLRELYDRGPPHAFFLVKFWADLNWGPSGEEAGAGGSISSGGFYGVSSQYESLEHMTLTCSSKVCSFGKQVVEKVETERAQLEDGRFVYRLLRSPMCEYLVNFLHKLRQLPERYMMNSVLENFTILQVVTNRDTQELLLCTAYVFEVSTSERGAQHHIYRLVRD
Apoptosis regulator Bcl-2, sequence (P10415 whole entry, the tested form may be a part): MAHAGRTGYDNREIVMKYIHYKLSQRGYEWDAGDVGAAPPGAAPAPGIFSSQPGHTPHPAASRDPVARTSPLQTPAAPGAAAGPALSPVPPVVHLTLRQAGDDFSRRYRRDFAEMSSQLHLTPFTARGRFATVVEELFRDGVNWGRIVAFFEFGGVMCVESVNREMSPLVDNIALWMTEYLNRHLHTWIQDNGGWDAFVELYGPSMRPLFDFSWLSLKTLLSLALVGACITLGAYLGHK
E3 ubiquitin-protein ligase Mdm2, sequence (Q00987 whole entry, the tested form may be a part): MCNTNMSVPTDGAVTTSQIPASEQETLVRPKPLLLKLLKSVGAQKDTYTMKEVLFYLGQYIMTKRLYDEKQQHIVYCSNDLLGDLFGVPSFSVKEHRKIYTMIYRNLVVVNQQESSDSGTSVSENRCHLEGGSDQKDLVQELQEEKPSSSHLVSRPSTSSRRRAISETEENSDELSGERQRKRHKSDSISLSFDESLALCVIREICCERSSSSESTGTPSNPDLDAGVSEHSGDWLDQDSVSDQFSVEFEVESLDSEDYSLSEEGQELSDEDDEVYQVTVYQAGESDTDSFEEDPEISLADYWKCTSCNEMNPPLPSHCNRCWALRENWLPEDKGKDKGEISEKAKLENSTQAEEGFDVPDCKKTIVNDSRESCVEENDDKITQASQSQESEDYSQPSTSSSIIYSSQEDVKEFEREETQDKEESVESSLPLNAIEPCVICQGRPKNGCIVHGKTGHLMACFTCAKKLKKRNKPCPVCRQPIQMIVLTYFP
beta-catenin-B-cell lymphoma 9 protein complex, sequence (P35222 whole entry, the tested form may be a part): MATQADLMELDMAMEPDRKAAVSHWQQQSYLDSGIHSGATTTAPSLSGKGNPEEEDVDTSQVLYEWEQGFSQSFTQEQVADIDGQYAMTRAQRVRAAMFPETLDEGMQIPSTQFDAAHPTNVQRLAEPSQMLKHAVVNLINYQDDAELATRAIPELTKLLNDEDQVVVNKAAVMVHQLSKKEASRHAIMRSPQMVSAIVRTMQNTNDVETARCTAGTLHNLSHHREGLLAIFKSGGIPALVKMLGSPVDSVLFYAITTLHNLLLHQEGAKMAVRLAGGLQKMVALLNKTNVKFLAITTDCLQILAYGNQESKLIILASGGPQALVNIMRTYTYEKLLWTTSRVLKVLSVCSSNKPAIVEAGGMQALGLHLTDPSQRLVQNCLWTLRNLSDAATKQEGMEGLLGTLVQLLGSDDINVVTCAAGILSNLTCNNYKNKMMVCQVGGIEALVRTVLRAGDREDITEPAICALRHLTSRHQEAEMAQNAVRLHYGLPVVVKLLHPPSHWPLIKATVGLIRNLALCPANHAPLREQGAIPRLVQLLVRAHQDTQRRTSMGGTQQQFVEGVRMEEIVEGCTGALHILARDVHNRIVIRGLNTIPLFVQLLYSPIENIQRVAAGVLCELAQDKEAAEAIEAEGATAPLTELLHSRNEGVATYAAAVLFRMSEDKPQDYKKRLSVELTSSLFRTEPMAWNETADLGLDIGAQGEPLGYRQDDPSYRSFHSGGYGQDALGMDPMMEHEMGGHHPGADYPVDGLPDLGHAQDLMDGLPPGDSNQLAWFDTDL
beta-catenin-B-cell lymphoma 9 protein complex, sequence (O00512 whole entry, further chain, the tested form may be a part): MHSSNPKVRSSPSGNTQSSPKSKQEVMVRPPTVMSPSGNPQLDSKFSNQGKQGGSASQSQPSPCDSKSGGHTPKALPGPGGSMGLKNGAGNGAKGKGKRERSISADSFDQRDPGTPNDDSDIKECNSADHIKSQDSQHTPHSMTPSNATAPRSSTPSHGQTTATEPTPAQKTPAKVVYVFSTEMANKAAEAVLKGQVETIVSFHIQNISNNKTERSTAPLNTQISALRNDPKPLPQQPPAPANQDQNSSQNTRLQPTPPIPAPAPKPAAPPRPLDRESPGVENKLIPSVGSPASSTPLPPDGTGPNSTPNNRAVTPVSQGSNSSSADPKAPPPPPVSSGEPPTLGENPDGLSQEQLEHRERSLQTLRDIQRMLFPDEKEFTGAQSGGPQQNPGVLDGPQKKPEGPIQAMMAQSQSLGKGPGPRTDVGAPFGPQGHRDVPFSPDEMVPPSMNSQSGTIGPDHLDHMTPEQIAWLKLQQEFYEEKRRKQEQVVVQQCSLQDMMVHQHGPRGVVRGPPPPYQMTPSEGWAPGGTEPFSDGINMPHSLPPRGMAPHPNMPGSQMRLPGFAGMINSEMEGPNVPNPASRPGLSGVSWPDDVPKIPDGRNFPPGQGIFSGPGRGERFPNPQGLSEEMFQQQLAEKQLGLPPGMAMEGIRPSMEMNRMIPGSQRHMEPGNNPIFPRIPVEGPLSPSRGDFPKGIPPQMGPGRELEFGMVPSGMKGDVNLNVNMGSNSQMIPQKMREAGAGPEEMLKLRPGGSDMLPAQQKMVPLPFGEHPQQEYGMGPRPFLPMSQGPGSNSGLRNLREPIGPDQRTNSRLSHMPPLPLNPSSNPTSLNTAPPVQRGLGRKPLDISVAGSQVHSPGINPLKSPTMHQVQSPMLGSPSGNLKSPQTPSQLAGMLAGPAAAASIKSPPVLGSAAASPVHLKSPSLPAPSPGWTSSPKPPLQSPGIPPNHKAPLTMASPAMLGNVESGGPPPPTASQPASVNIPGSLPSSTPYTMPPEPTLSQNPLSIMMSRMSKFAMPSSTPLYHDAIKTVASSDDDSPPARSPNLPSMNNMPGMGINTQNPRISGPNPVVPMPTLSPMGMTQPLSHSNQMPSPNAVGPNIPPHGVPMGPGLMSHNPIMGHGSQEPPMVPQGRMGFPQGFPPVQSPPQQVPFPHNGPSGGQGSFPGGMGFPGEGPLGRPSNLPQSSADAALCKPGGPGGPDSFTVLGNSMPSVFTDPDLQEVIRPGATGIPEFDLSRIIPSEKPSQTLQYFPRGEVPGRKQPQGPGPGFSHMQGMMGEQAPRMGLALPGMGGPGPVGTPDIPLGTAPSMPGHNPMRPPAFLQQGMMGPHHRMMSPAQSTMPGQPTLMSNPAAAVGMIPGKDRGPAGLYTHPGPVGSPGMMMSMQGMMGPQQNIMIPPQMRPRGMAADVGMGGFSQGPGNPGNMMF
Bromodomain-containing protein 3, sequence (Q15059 whole entry, the tested form may be a part): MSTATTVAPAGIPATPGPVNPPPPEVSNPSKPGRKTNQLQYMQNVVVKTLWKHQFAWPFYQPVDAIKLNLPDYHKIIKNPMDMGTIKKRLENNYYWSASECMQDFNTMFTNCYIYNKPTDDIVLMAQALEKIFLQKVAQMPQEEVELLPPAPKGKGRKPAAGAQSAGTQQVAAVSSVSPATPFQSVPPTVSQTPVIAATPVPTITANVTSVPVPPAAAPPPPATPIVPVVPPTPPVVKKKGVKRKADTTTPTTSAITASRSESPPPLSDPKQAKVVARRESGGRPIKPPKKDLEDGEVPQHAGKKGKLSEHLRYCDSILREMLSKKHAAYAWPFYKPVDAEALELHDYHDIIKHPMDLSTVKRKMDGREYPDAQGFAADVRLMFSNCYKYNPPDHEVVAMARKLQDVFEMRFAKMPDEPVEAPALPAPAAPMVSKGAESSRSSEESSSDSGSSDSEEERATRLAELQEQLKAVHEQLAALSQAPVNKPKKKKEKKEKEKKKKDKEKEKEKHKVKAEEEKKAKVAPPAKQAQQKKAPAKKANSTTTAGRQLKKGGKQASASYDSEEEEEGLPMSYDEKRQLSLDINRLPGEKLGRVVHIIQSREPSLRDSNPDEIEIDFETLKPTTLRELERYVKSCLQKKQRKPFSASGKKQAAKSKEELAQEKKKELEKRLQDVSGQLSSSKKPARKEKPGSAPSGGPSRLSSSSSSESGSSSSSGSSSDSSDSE

On to `C=CC(=O)N1CCN(c2c3ccc(-c4cccc(F)c4)cc3nn2Cc2ccccc2)CC1`, for which the outcome in assay [1] and in [10] was Active. The Ka in assay [2] is 2.09 10^5/Ms. In addition, the pKd in assay [3] is 6.58. The pKi in assay [4], in assay [5], in [6], in assay [7], in [8] and in assay [9] was < 3.40 in each case. For the same compound, the Activity result in assay [11] is “Dde”; in [12], “Dde”; in assay [13], 4.61%; in assay [14], 8.02%; in [15], 1.02%; in assay [16], 5.52%. Further, the Activity was 7.22% in assay [17], 11.37% in assay [18] and “Dde” in assay [20]. In [19], this compound had a pIC50 of 5.41.
